# Data: publication doi:10.1101/2024.02.20.581179v1, “Regulated mRNA recruitment in dinoflagellates is reflected in hyper-variable mRNA spliced leaders and novel eIF4Es” (biorxiv, 2024)
# Experiments:
# Format in all cases: binding
# eIF4E-1d1 [1] = target: T1, eIF4E-1d1 (Amphidinium carterae, UniProt A0A0X9VJN7); test: SPR, Biacore T-200, steady state
# T1 construct: gene eIF4E-1d; N-terminal GST tag (TEV site), E. coli, GST-fusion dimer, tag kept (SPR); S-tagged in vitro translated protein in bead assay
# T1 sequence (A0A0X9VJN7 1-239): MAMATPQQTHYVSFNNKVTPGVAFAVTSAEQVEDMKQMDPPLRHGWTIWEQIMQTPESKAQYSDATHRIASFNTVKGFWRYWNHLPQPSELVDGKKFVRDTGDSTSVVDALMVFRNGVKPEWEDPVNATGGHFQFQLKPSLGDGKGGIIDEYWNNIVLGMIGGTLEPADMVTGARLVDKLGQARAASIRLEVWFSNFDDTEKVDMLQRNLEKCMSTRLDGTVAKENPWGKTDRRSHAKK
# mouse eIF4E-1 [2] = target: T2, mouse eIF4E-1 (Mus musculus, UniProt P63073); test: SPR, Biacore T-200, steady state
# T2 construct: N-terminal GST tag, E. coli, GST-fusion dimer, tag kept
# eIF4E-2a = target: T3, eIF4E-2a (Amphidinium carterae, UniProt A0A109QBD6); test: SPR, Biacore T-200, steady state
# T3 construct: N-terminal GST tag (TEV site), E. coli, GST-fusion dimer, tag kept
# T3 sequence (A0A109QBD6 1-255): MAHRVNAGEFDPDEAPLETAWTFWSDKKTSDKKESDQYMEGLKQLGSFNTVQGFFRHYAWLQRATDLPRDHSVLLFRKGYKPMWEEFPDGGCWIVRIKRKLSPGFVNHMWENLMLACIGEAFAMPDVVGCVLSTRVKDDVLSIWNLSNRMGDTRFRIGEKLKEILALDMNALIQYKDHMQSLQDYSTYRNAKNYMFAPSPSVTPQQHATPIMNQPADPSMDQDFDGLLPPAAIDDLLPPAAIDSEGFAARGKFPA
# Source text: SPR, Biacore T-200, steady state on eIF4E-2a
# eIF4E-1a = target: T4, eIF4E-1a (Amphidinium carterae, UniProt A0A0X9W7I2); test: SPR, Biacore T-200, steady state
# T4 construct: N-terminal GST tag (TEV site), pGEX-4T(MCS)-TEV, E. coli Rosetta(DE3)pLysS, DTT treated, GST-fusion dimer by gel filtration; tag kept
# T4 sequence (A0A0X9W7I2 1-233): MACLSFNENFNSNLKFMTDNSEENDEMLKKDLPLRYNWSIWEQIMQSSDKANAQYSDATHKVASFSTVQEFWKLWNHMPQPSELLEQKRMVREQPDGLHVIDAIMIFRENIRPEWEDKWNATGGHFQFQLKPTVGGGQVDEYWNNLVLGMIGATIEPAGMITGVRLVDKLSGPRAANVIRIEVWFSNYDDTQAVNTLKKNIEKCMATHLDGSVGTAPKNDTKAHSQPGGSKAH
# mouse eIF4E-1 [3] = target: T2, mouse eIF4E-1; test: SPR, Biacore T-200, kinetic fit
# Source text: SPR, Biacore T-200, kinetic fit on mouse eIF4E-1
# eIF4E-1d1 [4] = target: T1, eIF4E-1d1; test: SPR, Biacore T-200, kinetic fit
# Source text: SPR, Biacore T-200, kinetic fit on eIF4E-1d1
# eIF4E-1c = target: T5, eIF4E-1c (Amphidinium carterae, UniProt A0A0X9VF44); test: cap-Sepharose pull-down of […] in vitro translated protein; details: ligand immobilised on Sepharose; S-tagged protein; 25 mM HEPES/KOH pH 7.2, 150 mM KCl, 200 μM GTP, 4 °C
# T5 construct: N-terminal S-tag, pCITE-4a, in vitro transcription/translation in rabbit reticulocyte lysate, 35S-Met labelled
# T5 sequence (A0A0X9VF44 1-244): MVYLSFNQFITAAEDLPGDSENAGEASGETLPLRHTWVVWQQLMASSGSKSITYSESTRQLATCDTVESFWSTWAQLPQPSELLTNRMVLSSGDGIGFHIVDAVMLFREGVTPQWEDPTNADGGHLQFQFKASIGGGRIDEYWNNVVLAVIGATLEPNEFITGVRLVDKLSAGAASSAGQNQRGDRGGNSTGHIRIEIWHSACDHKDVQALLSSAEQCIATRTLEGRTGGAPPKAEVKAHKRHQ
# eIF4E-1d1 [5] = target: T1, eIF4E-1d1; test: as above; details: ligand immobilised on Sepharose; S-tagged protein; 25 mM HEPES/KOH pH 7.2, 150 mM KCl, 200 μM GTP, 4 °C
# T2 sequence (P63073 2-217): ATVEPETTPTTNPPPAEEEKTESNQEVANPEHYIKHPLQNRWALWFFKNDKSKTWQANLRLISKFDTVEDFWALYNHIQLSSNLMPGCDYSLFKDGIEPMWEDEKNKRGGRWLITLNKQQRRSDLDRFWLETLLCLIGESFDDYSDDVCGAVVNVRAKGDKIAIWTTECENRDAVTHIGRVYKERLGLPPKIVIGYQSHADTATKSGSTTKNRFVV
SMILES,Kd (eIF4E-1d1 [1]),Kd (mouse eIF4E-1 [2]),Kd (eIF4E-2a),Kd (eIF4E-1a),Kd (mouse eIF4E-1 [3]),Kd (eIF4E-1d1 [4]),cap-Sepharose pull-down of 35S in vitro translated protein (eIF4E-1c),cap-Sepharose pull-down of 35S in vitro translated protein (eIF4E-1d1 [5])
Nc1nc2c(ncn2[C@@H]2O[C@H](COP(=O)(O)OP(=O)(O)OP(=O)(O)OC[C@H]3O[C@@H](n4cnc5c(=O)[nH]c(N)nc54)[C@H](O)[C@@H]3O)[C@@H](O)[C@H]2O)c(=O)[nH]1 [GpppG],1010 ± 110 µM,316 ± 38 µM,665 ± 19 µM,1730 ± 3700 µM,–,–,–,–
C[n+]1cn([C@@H]2O[C@H](COP(=O)(O)OP(=O)(O)OP(=O)(O)OC[C@H]3O[C@@H](n4ccc(N)nc4=O)[C@H](O)[C@@H]3O)[C@@H](O)[C@H]2O)c2nc(N)[nH]c(=O)c21 [m^7GpppC],–,–,–,10.8 ± 3.1 µM,69.8 µM,82.4 µM,–,–
C[n+]1cn([C@@H]2O[C@H](COP(=O)(O)OP(=O)(O)OP(=O)(O)OC[C@H]3O[C@@H](n4cnc5c(=O)[nH]c(N)nc54)[C@H](O)[C@@H]3O)[C@@H](O)[C@H]2O)c2nc(N)[nH]c(=O)c21 [m^7GpppG],34.5 ± 18.6 µM,59.7 ± 49.3 µM,469 ± 220 µM,17.5 ± 4.68 µM,–,–,–,–
CN(C)c1nc2c(c(=O)[nH]1)[n+](C)cn2[C@@H]1O[C@H](COP(=O)(O)OP(=O)(O)OP(=O)(O)O)[C@@H](O)[C@H]1O [TMG],–,–,–,–,–,–,eIF4E-1c and eIF4E-1d1 showed some affinity for the TMG cap analogue,eIF4E-1c and eIF4E-1d1 showed some affinity for the TMG cap analogue
